Source: the supplement of paper PMC11208160

experiment: recombinant barcode read abundance after kanamycin selection (control-corrected) (log10(CPM+1)); higher = more efficient recombination; sequences stand for … in AGTGCAGAGAAAATCGGCCAGTTTTCTCTGCCTGCAGTCCGCATGCCGT…AGATTTATGCAGCGGACTGCCTTTCTCCCAAAGTGATAAACCGGACAGTATCATGGACCGGTTTTCCCGGTAATCCGTATTTGCAAGGTTGGTTTCACT; site = the 11-nt target
Outline: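 Recombination efficiency in this pooled E. coli screen uses counts per million of barcodes at recombinant junctions, averaged and corrected against the control. The reported form is log10(CPM+1). Two replicates were plated on chloramphenicol/ampicillin LB agar as control and two on chloramphenicol/ampicillin/kanamycin with 0.1 mM IPTG.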
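Further: IS621 recombinase and bridge RNA in Escherichia coli cells.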

Row | Sequence | recombinant barcode read abundance (log10)
1 | CTTGGAGCTTGGGTTCTAACCTGTTGCCT (site CTTGGAACTAG) | 0.365
2 | CTTGGAGCTTGGGTTCTAACCTGTTGCCT (site CTTGGACCTAG) | 0.247
3 | CTTGGAGCTTGGGTTCTAACCTGTTGCCT (site CTTGGAGCTAG) | 1.61
4 | CTTGGAGCTTGGGTTCTAACCTGTTGCCT (site CTTGGATCTAG) | 0.145
5 | CTTGGGTCTTGGGTTCTAACCTGTTGCAT (site CTTGGGTCTAT) | 2.72
6 | CTTGGGTCTTGGGTTCTAACCTGTTGCAT (site TCCCATACTTC) | 0.0573
7 | CTTGGTTCTTGGGTTCTAACCTGTTGCTT (site CTGGGTCCTAA) | 0.0304
8 | CTTGGTTCTTGGGTTCTAACCTGTTGCTT (site CTTGGTTCTAA) | 0.809
9 | GAAAACACTTGGGTTCTAACCTGTTGCCT (site GAAAACACTAG) | 1.18
10 | GAAAACACTTGGGTTCTAACCTGTTGCCT (site GAAGAGACTAG) | 0.0433
11 | GAAAAGGCTTGGGTTCTAACCTGTTGCCT (site GAAAAGGCTAG) | 0.804
12 | GAAAAGGCTTGGGTTCTAACCTGTTGCCT (site GAAACGGCTAG) | 0.105
13 | GAAAAGGCTTGGGTTCTAACCTGTTGCCT (site GAAAGGGCTAG) | 0.0324
14 | GAAAAGGCTTGGGTTCTAACCTGTTGCCT (site GAAATGGCTAG) | 0.206
15 | GAAACGTCTTGGGTTCTAACCTGTTGCCT (site GAAACGTCTAG) | 1.65
16 | GAAACGTCTTGGGTTCTAACCTGTTGCCT (site GACAAGTCTAG) | 0.0765
17 | GAAACTCCTTGGGTTCTAACCTGTTGCCT (site GAAAATCCTAG) | 0.13
18 | GAAACTCCTTGGGTTCTAACCTGTTGCCT (site GAAACTCCTAG) | 0.352
19 | GAAACTCCTTGGGTTCTAACCTGTTGCCT (site GAAAGTCCTAG) | 0.235
20 | GAAACTCCTTGGGTTCTAACCTGTTGCCT (site GAAATTCCTAG) | 0.0462
21 | GAAATGACTTGGGTTCTAACCTGTTGCCT (site GAAATGACTAG) | 0.908
22 | GAAATGACTTGGGTTCTAACCTGTTGCCT (site GCAATGACTAG) | 0.152

Row | Sequence | recombinant barcode read abundance (log10)
23 | GAAATGACTTGGGTTCTAACCTGTTGCCT (site GGAATGACTAG) | 0.066
24 | GAAATGACTTGGGTTCTAACCTGTTGCCT (site GTAATGACTAG) | 0.202
25 | GAACCTTCTTGGGTTCTAACCTGTTGCGG (site GAACCTTCTCC) | 0.93
26 | GAACCTTCTTGGGTTCTAACCTGTTGCGG (site TTCTACACTAT) | 0.0281
27 | GAACGACCTTGGGTTCTAACCTGTTGCCT (site AAACGACCTAG) | 0.331
28 | GAACGACCTTGGGTTCTAACCTGTTGCCT (site CAACGACCTAG) | 0.0122
29 | GAACGACCTTGGGTTCTAACCTGTTGCCT (site GAACGACCTAG) | 0.721
30 | GAACGACCTTGGGTTCTAACCTGTTGCCT (site TAACGACCTAG) | 0.144
31 | GAACTCCCTTGGGTTCTAACCTGTTGCGG (site GAACTCCCTCC) | 0.758
32 | GAACTCCCTTGGGTTCTAACCTGTTGCGG (site TGTTGGTCTAA) | 0.0984
33 | GAACTCTCTTGGGTTCTAACCTGTTGCTA (site CCTAAAACTAG) | 0.0469
34 | GAACTCTCTTGGGTTCTAACCTGTTGCTA (site GAACTCTCTTA) | 1.66
35 | GAACTGTCTTGGGTTCTAACCTGTTGCCA (site GAACTGTCTTG) | 0.995
36 | GAACTGTCTTGGGTTCTAACCTGTTGCCA (site GTACTCTCTTG) | 0.0913
37 | GAAGAGCCTTGGGTTCTAACCTGTTGCCT (site GAAGAGCCTAG) | 2.62
38 | GAAGAGCCTTGGGTTCTAACCTGTTGCCT (site GAAGCGCCTAG) | 0.189
39 | GAAGAGCCTTGGGTTCTAACCTGTTGCCT (site GAAGGGCCTAG) | 0.0404
40 | GAAGAGCCTTGGGTTCTAACCTGTTGCCT (site GAAGTGCCTAG) | 0.0759
41 | GAAGAGGCTTGGGTTCTAACCTGTTGCCA (site GAAGAGGCTTG) | 0.536
42 | GAAGAGGCTTGGGTTCTAACCTGTTGCCA (site TGTCTCCCTAC) | 0.115
43 | GAAGCCGCTTGGGTTCTAACCTGTTGCCT (site GAAGACGCTAG) | 0.0292
44 | GAAGCCGCTTGGGTTCTAACCTGTTGCCT (site GAAGCCGCTAG) | 2.26

Row | Sequence | recombinant barcode read abundance (log10)
45 | GAAGCCGCTTGGGTTCTAACCTGTTGCCT (site GAAGGCGCTAG) | 0.16
46 | GAAGCCGCTTGGGTTCTAACCTGTTGCCT (site GAAGTCGCTAG) | 0.302
47 | GAAGGAGCTTGGGTTCTAACCTGTTGCAG (site ATGCCTCCTAA) | 0.0306
48 | GAAGGAGCTTGGGTTCTAACCTGTTGCAG (site GAAGGAGCTCT) | 1.51
49 | GAAGGGACTTGGGTTCTAACCTGTTGCCT (site GAAGGGACTAG) | 2.11
50 | GAAGGGACTTGGGTTCTAACCTGTTGCCT (site GCAGGGACTAG) | 0.236
51 | GAAGGGACTTGGGTTCTAACCTGTTGCCT (site GGAGGGACTAG) | 0.585
52 | GAAGGGACTTGGGTTCTAACCTGTTGCCT (site GTAGGGACTAG) | 1.52
53 | GAAGTCGCTTGGGTTCTAACCTGTTGCCT (site GAAGACGCTAG) | 0.187
54 | GAAGTCGCTTGGGTTCTAACCTGTTGCCT (site GAAGCCGCTAG) | 0.508
55 | GAAGTCGCTTGGGTTCTAACCTGTTGCCT (site GAAGGCGCTAG) | 0
56 | GAAGTCGCTTGGGTTCTAACCTGTTGCCT (site GAAGTCGCTAG) | 1.78
57 | GAATATTCTTGGGTTCTAACCTGTTGCCT (site GAATATTCTAG) | 0.739
58 | GAATATTCTTGGGTTCTAACCTGTTGCCT (site GACTATTCTAG) | 0.0547
59 | GAATATTCTTGGGTTCTAACCTGTTGCCT (site GAGTATTCTAG) | 0.136
60 | GAATATTCTTGGGTTCTAACCTGTTGCCT (site GATTATTCTAG) | 0.27
61 | GAATGTCCTTGGGTTCTAACCTGTTGCAT (site GAATGTCCTAT) | 1.39
62 | GAATGTCCTTGGGTTCTAACCTGTTGCAT (site GCATGTCCTAT) | 0.0491
63 | GACAATGCTTGGGTTCTAACCTGTTGCAT (site ACGTGGACTTA) | 0.229
64 | GACAATGCTTGGGTTCTAACCTGTTGCAT (site GACAATGCTAT) | 0.105
65 | GACACAACTTGGGTTCTAACCTGTTGCCA (site CGGCTCCCTAA) | 0.208
66 | GACACAACTTGGGTTCTAACCTGTTGCCA (site GACACAACTTG) | 0.018

Row | Sequence | recombinant barcode read abundance (log10)
67 | GACACGCCTTGGGTTCTAACCTGTTGCCT (site GACACGCCTAA) | 0.301
68 | GACACGCCTTGGGTTCTAACCTGTTGCCT (site GACACGCCTAC) | 0.0669
69 | GACACGCCTTGGGTTCTAACCTGTTGCCT (site GACACGCCTAG) | 0.156
70 | GACACGCCTTGGGTTCTAACCTGTTGCCT (site GACACGCCTAT) | 0.146
71 | GACACGCCTTGGGTTCTAACCTGTTGCGT (site GACACGCCTAA) | 0.205
72 | GACACGCCTTGGGTTCTAACCTGTTGCGT (site GACACGCCTAC) | 0.571
73 | GACACGCCTTGGGTTCTAACCTGTTGCGT (site GACACGCCTAG) | 0.156
74 | GACACGCCTTGGGTTCTAACCTGTTGCGT (site GACACGCCTAT) | 0.147
75 | GACACGTCTTGGGTTCTAACCTGTTGCCT (site GACACCTCTAA) | 0
76 | GACACGTCTTGGGTTCTAACCTGTTGCCT (site GACACGTCTAG) | 0.534
77 | GACAGGACTTGGGTTCTAACCTGTTGCCT (site AACACGACTAG) | 0.196
78 | GACAGGACTTGGGTTCTAACCTGTTGCCT (site GACAGGACTAG) | 1.32
79 | GACATCACTTGGGTTCTAACCTGTTGCCT (site GACATCACTAG) | 0.767
80 | GACATCACTTGGGTTCTAACCTGTTGCCT (site GACATCCCTAG) | 0.0352
81 | GACATCACTTGGGTTCTAACCTGTTGCCT (site GACATCGCTAG) | 0.192
82 | GACATCACTTGGGTTCTAACCTGTTGCCT (site GACATCTCTAG) | 0.0671
83 | GACATCCCTTGGGTTCTAACCTGTTGCCT (site GACATCACTAG) | 0.045
84 | GACATCCCTTGGGTTCTAACCTGTTGCCT (site GACATCCCTAG) | 1.45
85 | GACATCCCTTGGGTTCTAACCTGTTGCCT (site GACATCGCTAG) | 0.0465
86 | GACATCCCTTGGGTTCTAACCTGTTGCCT (site GACATCTCTAG) | 0.142
